± gives the expanded uncertainty stated by the source.
Test: xn = mol fraction of the nth substance listed
Conditions: 100 kPa, Liquid; for viscosity: Falling or rolling sphere viscometry; for mass density: Vibrating tube method

CC(C)C1CCCCC1 [(1-methylethyl)cyclohexane] + OCC1CC1
Conditions | mass density [kg/m3] | viscosity [mPa·s]
293.15 K, x1 = 0.0996 | 891.76 ± 1.1 | –
293.15 K, x1 = 0.1003 | – | 3.277 ± 0.07
293.15 K, x1 = 0.1991 | 874.27 ± 1.1 | 2.592 ± 0.055
293.15 K, x1 = 0.2995 | 859.61 ± 1 | 2.18 ± 0.047
293.15 K, x1 = 0.3996 | 847.35 ± 1 | 1.862 ± 0.04
293.15 K, x1 = 0.4993 | 836.86 ± 1 | 1.621 ± 0.035
293.15 K, x1 = 0.5997 | 827.69 ± 1 | –
293.15 K, x1 = 0.619 | – | 1.406 ± 0.03
293.15 K, x1 = 0.7011 | 819.71 ± 0.99 | 1.288 ± 0.028
293.15 K, x1 = 0.7967 | 812.9 ± 0.98 | 1.192 ± 0.026
293.15 K, x1 = 0.9026 | 806.51 ± 0.98 | 1.115 ± 0.024
293.15 K, x1 = 1 | 802.14 ± 0.97 | 1.093 ± 0.023
298.15 K, x1 = 0.0996 | 887.68 ± 1.1 | –
298.15 K, x1 = 0.1003 | – | 2.876 ± 0.061
298.15 K, x1 = 0.1991 | 870.17 ± 1.1 | 2.286 ± 0.049
298.15 K, x1 = 0.2995 | 855.52 ± 1 | 1.937 ± 0.041
298.15 K, x1 = 0.3996 | 843.25 ± 1 | 1.668 ± 0.036
298.15 K, x1 = 0.4993 | 832.77 ± 1 | 1.463 ± 0.031
298.15 K, x1 = 0.5997 | 823.61 ± 1 | –
298.15 K, x1 = 0.619 | – | 1.281 ± 0.027
298.15 K, x1 = 0.7011 | 815.65 ± 0.99 | 1.18 ± 0.025
298.15 K, x1 = 0.7967 | 808.85 ± 0.98 | 1.099 ± 0.024
298.15 K, x1 = 0.9026 | 802.52 ± 0.97 | 1.033 ± 0.022
298.15 K, x1 = 1 | 798.24 ± 0.97 | 1.016 ± 0.022
303.15 K, x1 = 0.0996 | 883.58 ± 1.1 | –
303.15 K, x1 = 0.1003 | – | 2.523 ± 0.054
303.15 K, x1 = 0.1991 | 866.05 ± 1.1 | 2.028 ± 0.043
303.15 K, x1 = 0.2995 | 851.39 ± 1 | 1.729 ± 0.037
303.15 K, x1 = 0.3996 | 839.12 ± 1 | 1.499 ± 0.032
303.15 K, x1 = 0.4993 | 828.64 ± 1 | 1.325 ± 0.028
303.15 K, x1 = 0.5997 | 819.5 ± 0.99 | –
303.15 K, x1 = 0.619 | – | 1.17 ± 0.025
303.15 K, x1 = 0.7011 | 811.56 ± 0.98 | 1.085 ± 0.023
303.15 K, x1 = 0.7967 | 804.8 ± 0.98 | 1.015 ± 0.022
303.15 K, x1 = 0.9026 | 798.52 ± 0.97 | 0.958 ± 0.021
303.15 K, x1 = 1 | 794.34 ± 0.96 | 0.947 ± 0.02
308.15 K, x1 = 0.0996 | 879.43 ± 1.1 | –
308.15 K, x1 = 0.1003 | – | 2.227 ± 0.048
308.15 K, x1 = 0.1991 | 861.89 ± 1 | 1.807 ± 0.039
308.15 K, x1 = 0.2995 | 847.23 ± 1 | 1.551 ± 0.033
308.15 K, x1 = 0.3996 | 834.96 ± 1 | 1.356 ± 0.029
308.15 K, x1 = 0.4993 | 824.49 ± 1 | 1.207 ± 0.026
308.15 K, x1 = 0.5997 | 815.37 ± 0.99 | –
308.15 K, x1 = 0.619 | – | 1.075 ± 0.023
308.15 K, x1 = 0.7011 | 807.46 ± 0.98 | 1.001 ± 0.021
308.15 K, x1 = 0.7967 | 800.75 ± 0.97 | 0.941 ± 0.02
308.15 K, x1 = 0.9026 | 794.49 ± 0.96 | 0.893 ± 0.019
308.15 K, x1 = 1 | 790.43 ± 0.96 | 0.886 ± 0.019
313.15 K, x1 = 0.0996 | 875.25 ± 1.1 | –
313.15 K, x1 = 0.1003 | – | 1.912 ± 0.041
313.15 K, x1 = 0.1991 | 857.7 ± 1 | 1.617 ± 0.035
313.15 K, x1 = 0.2995 | 843.04 ± 1 | 1.399 ± 0.03
313.15 K, x1 = 0.3996 | 830.77 ± 1 | 1.231 ± 0.026
313.15 K, x1 = 0.4993 | 820.31 ± 0.99 | 1.103 ± 0.024
313.15 K, x1 = 0.5997 | 811.21 ± 0.98 | –
313.15 K, x1 = 0.619 | – | 0.99 ± 0.021
313.15 K, x1 = 0.7011 | 803.33 ± 0.97 | 0.927 ± 0.02
313.15 K, x1 = 0.7967 | 796.66 ± 0.97 | 0.876 ± 0.019
313.15 K, x1 = 0.9026 | 790.46 ± 0.96 | 0.834 ± 0.018
313.15 K, x1 = 1 | 786.51 ± 0.95 | 0.831 ± 0.018
318.15 K, x1 = 0.0996 | 871.02 ± 1.1 | –
318.15 K, x1 = 0.1003 | – | 1.706 ± 0.036
318.15 K, x1 = 0.1991 | 853.46 ± 1 | 1.454 ± 0.031
318.15 K, x1 = 0.2995 | 838.79 ± 1 | 1.266 ± 0.027
318.15 K, x1 = 0.3996 | 826.54 ± 1 | 1.121 ± 0.024
318.15 K, x1 = 0.4993 | 816.09 ± 0.99 | 1.012 ± 0.022
318.15 K, x1 = 0.5997 | 807.02 ± 0.98 | –
318.15 K, x1 = 0.619 | – | 0.916 ± 0.02
318.15 K, x1 = 0.7011 | 799.17 ± 0.97 | 0.861 ± 0.018
318.15 K, x1 = 0.7967 | 792.54 ± 0.96 | 0.817 ± 0.018
318.15 K, x1 = 0.9026 | 786.41 ± 0.95 | 0.782 ± 0.017
318.15 K, x1 = 1 | 782.59 ± 0.95 | 0.782 ± 0.017
323.15 K, x1 = 0.0996 | 866.78 ± 1.1 | –
323.15 K, x1 = 0.1003 | – | 1.525 ± 0.033
323.15 K, x1 = 0.1991 | 849.2 ± 1 | 1.312 ± 0.028
323.15 K, x1 = 0.2995 | 834.53 ± 1 | 1.151 ± 0.025
323.15 K, x1 = 0.3996 | 822.28 ± 1 | 1.027 ± 0.022
323.15 K, x1 = 0.4993 | 811.84 ± 0.98 | 0.932 ± 0.02
323.15 K, x1 = 0.5997 | 802.8 ± 0.97 | –
323.15 K, x1 = 0.619 | – | 0.849 ± 0.018
323.15 K, x1 = 0.7011 | 794.99 ± 0.96 | 0.802 ± 0.017
323.15 K, x1 = 0.7967 | 788.4 ± 0.96 | 0.764 ± 0.016
323.15 K, x1 = 0.9026 | 782.33 ± 0.95 | 0.735 ± 0.016
323.15 K, x1 = 1 | 778.66 ± 0.95 | 0.738 ± 0.016
328.15 K, x1 = 0.0996 | 862.47 ± 1 | –
328.15 K, x1 = 0.1003 | – | 1.372 ± 0.029
328.15 K, x1 = 0.1991 | 844.88 ± 1 | 1.189 ± 0.025
328.15 K, x1 = 0.2995 | 830.2 ± 1 | 1.05 ± 0.022
328.15 K, x1 = 0.3996 | 817.96 ± 0.99 | 0.943 ± 0.02
328.15 K, x1 = 0.4993 | 807.55 ± 0.98 | 0.861 ± 0.018
328.15 K, x1 = 0.5997 | 798.54 ± 0.97 | –
328.15 K, x1 = 0.619 | – | 0.791 ± 0.017
328.15 K, x1 = 0.7011 | 790.77 ± 0.96 | 0.75 ± 0.016
328.15 K, x1 = 0.7967 | 784.24 ± 0.95 | 0.717 ± 0.015
328.15 K, x1 = 0.9026 | 778.25 ± 0.95 | 0.692 ± 0.015
328.15 K, x1 = 1 | 774.72 ± 0.94 | 0.698 ± 0.015
333.15 K, x1 = 0.0996 | 858.1 ± 1 | –
333.15 K, x1 = 0.1003 | – | 1.239 ± 0.026
333.15 K, x1 = 0.1991 | 840.5 ± 1 | 1.082 ± 0.023
333.15 K, x1 = 0.2995 | 825.83 ± 1 | 0.961 ± 0.021
333.15 K, x1 = 0.3996 | 813.6 ± 0.99 | 0.869 ± 0.019
333.15 K, x1 = 0.4993 | 803.22 ± 0.97 | 0.799 ± 0.017
333.15 K, x1 = 0.5997 | 794.24 ± 0.96 | –
333.15 K, x1 = 0.619 | – | 0.738 ± 0.016
333.15 K, x1 = 0.7011 | 786.52 ± 0.95 | 0.702 ± 0.015
333.15 K, x1 = 0.7967 | 780.04 ± 0.95 | 0.674 ± 0.014
333.15 K, x1 = 0.9026 | 774.14 ± 0.94 | 0.654 ± 0.014
333.15 K, x1 = 1 | 770.77 ± 0.94 | 0.661 ± 0.014
338.15 K, x1 = 0.0996 | 853.67 ± 1 | –
338.15 K, x1 = 0.1003 | – | 1.124 ± 0.024
338.15 K, x1 = 0.1991 | 836.06 ± 1 | 0.988 ± 0.021
338.15 K, x1 = 0.2995 | 821.41 ± 0.99 | 0.883 ± 0.019
338.15 K, x1 = 0.3996 | 809.2 ± 0.98 | 0.804 ± 0.017
338.15 K, x1 = 0.4993 | 798.85 ± 0.97 | 0.743 ± 0.016
338.15 K, x1 = 0.5997 | 789.91 ± 0.96 | –
338.15 K, x1 = 0.619 | – | 0.69 ± 0.015
338.15 K, x1 = 0.7011 | 782.24 ± 0.95 | 0.66 ± 0.014
338.15 K, x1 = 0.7967 | 775.82 ± 0.94 | 0.636 ± 0.014
338.15 K, x1 = 0.9026 | 770.01 ± 0.94 | 0.619 ± 0.013
338.15 K, x1 = 1 | 766.81 ± 0.93 | 0.628 ± 0.013
343.15 K, x1 = 0.0996 | 849.17 ± 1 | –
343.15 K, x1 = 0.1003 | – | 1.023 ± 0.022
343.15 K, x1 = 0.1991 | 831.57 ± 1 | 0.905 ± 0.019
343.15 K, x1 = 0.2995 | 816.93 ± 0.99 | 0.815 ± 0.017
343.15 K, x1 = 0.3996 | 804.75 ± 0.97 | 0.746 ± 0.016
343.15 K, x1 = 0.4993 | 794.44 ± 0.96 | 0.693 ± 0.015
343.15 K, x1 = 0.5997 | 785.54 ± 0.95 | –
343.15 K, x1 = 0.619 | – | 0.648 ± 0.014
343.15 K, x1 = 0.7011 | 777.93 ± 0.94 | 0.622 ± 0.013
343.15 K, x1 = 0.7967 | 771.58 ± 0.94 | 0.601 ± 0.013
343.15 K, x1 = 0.9026 | 765.88 ± 0.93 | 0.587 ± 0.013
343.15 K, x1 = 1 | 762.84 ± 0.93 | 0.598 ± 0.013

Source: the NIST ThermoML archive (doi:10.1021/acs.jced.8b00662)
